Laboratory results taken from US20070122903A1, “AMNIOTIC FLUID DERIVED CELLS” (priority 2005, published 2007).

Key:
Type in all cases: cell-based, human
cell line AFCA007 (AF-I) = test: Cytotoxicity by MTS cell viability assay; settings: up to 10 μM for 5 days
Experimental: (§1) Cells were treated for three days, at the concentrations indicated. Changes in viability, corresponding to cytotoxicity were detected using an MTS assay, where a decrease in cell viability corresponds to a decrease in A490 nm.
(§2) Cells from the cell line AFCA007 (AF-I) at passage 8 were treated with a range of concentrations of the notch pathway inhibitor L-685,458 (Sigma, MO) for 3 to 5 days. The cytotoxcity of L-685,458 was determined by measuring cell viability by a MTS assay (Promega, WI). Real-time PCR analysis was performed to analyze Hes-1 expression after the treatment. […] No effect on cell viability, as determined by the MTS assay, was observed following L-685,458 treatment of up to 10 μM for 5 days (FIG. 17, panel b).

[1] = system: Hes-1 expression (Notch pathway) in cell line AFCA007 (AF-I); test: Hes-1 expression by real-time PCR after notch pathway inhibition; settings: range of concentrations, 3 to 5 days
Experimental: as §1, §2

[2] = system: cell line AFCA007 Clone A (AF-I); test: Differentiation of cells into multiple endocrine lineages (collagen type I/matrigel transwell culture with growth factors); settings: 14 days, DMEM + 5% FBS
Experimental: Cells from the cell line AFCA007 Clone A (AF-I) at passage 8 were embedded in collagen type I (Becton Dickinson, CA) with 1% growth-factor reduced matrigel matrix (Becton Dickinson), and seeded into 6-well transwell insert at 5×10^5 cells per well. The bottom well was seeded with human aortic endothelial cells passage 6 (Cambrex. MD). Cells were cultured with DMEM medium supplemented with 5% FBS and growth factors, which includes Cyclopamine, bFGF, EGF, BMP4-7, Activin A, Exendin 4, FGF4, all-trans retinoic acid and γ-secretase inhibitors for 14 days. Cultures were fed every other day. […] Treatment of cells with BMPs at high concentration, 50 ng/ml, also up-regualted the GATA4 expression.

[3] = system: cell line AFCA004 (E morphology); test: Treatment with PANC-1 conditioned medium in combination with growth factors, real-time PCR; settings: PANC-1 conditioned medium plus growth factor; for somatostatin expression: after 14 days treatment
Experimental: Amniotic fluid-derived cells were obtained from a single donor and cultured for 12 days in conditioned media that was obtained from cultures of PANC-1 cells. The media was supplemented with the growth factors indicated. The levels of expression of HNF-3 beta and somatostatin were determined by real-time PCR. Human pancreas total RNA was included as a calibrator.
Cells from the cell line AFCA004 (E morphology) at passage 6 were seeded at 5×10^5 cells per well of 6-well culture plates and treated with conditioned medium from confluent PANC-1 cells (ATCC, VA) in combination with different growth factors. Basic FGF, EGF and combination of bFGF and EGF enhanced the expression of HNF-3 beta ˜100 fold over untreated cells. Basic FGF, EGF and BMPs also stimulated somatostatin expression after 14 days treatment (FIG. 16, panels a&b).

Row | Compound | expression of HNF-3 beta over untreated cells [3] | somatostatin expression [3] | further results
1 | CC(C)C[C@H](NC(=O)[C@H](Cc1ccccc1)C[C@@H](O)[C@H](Cc1ccccc1)NC(=O)OC(C)(C)C)C(=O)N[C@@H](Cc1ccccc1)C(N)=O [L-685,458] | – | – | cell viability (MTS assay) (cell line AFCA007 (AF-I)): No effect; Hes-1 expression [1]: dose-dependent inhibitory effect; expression of HNF-3 beta [2]: up-regulated
2 | CC1=C(/C=C/C(C)=C/C=C/C(C)=C/C(=O)O)C(C)(C)CCC1 [all-trans retinoic acid, reference compound] | – | – | alpha-fetoprotein (AFP) expression [2]: up-regulation
3 | Basic FGF: growth factor combined with PANC-1 conditioned medium | ~100 fold | stimulated | –
4 | EGF: epidermal growth factor combined with PANC-1 conditioned medium (NSDSECPLSHDGYCLHDGVCMYIEALDKYACNCVVGYIGERCQYRDLKWWELR; Epidermal growth factor; UniProt P01133 971-1023, looked up) | ~100 fold | stimulated | –
